Patent US20060148878A1, “Pseudopolymorphic forms of carvedilol” (priority 2001, published 2006)

What was measured:
[1] = active substance resorption / bioavailability of compositions containing carvedilol form IV; type: in vivo; conditions: compositions with selected adjuvants, compared with formulations which contain carvedilol forms I or II
[2] = resorption after peroral administration of rapid release carvedilol formulations; type: in vivo; conditions: e.g. the commercial formulation
Description: In the case of the peroral administration of rapid release carvedilol formulations, e.g. the commercial formulation, resorption quotas of up to 80% are achieved, with a considerable part of the resorbed carvedilol being very rapidly metabolized.

[3] = investigations into the gastrointestinal resorption of carvedilol; type: in vivo; conditions: compared with resorption in the stomach
[4] = dissolution in molten polyethylene glycol 6,000; type: physicochemical; conditions: polyethylene glycol 6,000 melted at about 70° C.; carvedilol form I, II or IV dissolved
Protocol: Thus, carvedilol form I, II or IV can be dissolved in polyethylene glycol 6,000 which is melted at about 70° C. […] Further, the compositions in accordance with the invention can contain highly dispersed silicon dioxide as an anti-caking agent.

[5] = pH 1

Row | SMILES | bioavailability [1] | resorption quota [2] | resorption in the ileum and colon [3] | concentration of carvedilol obtained in polyethylene glycol 6,000 [4] | solubility in aqueous media [5] | solubility in the strongly acidic region [5]
1 | COc1ccccc1OCCNCC(O)COc1cccc2[nH]c3ccccc3c12 (racemic) [carvedilol form IV, (±)1-(4-carbazolyloxy)-3-[2-(2-methoxyphenoxy)ethylamino]-2-propanole] | improved bioavailability | – | – | – | – | –
2 | COc1ccccc1OCCNCC(O)COc1cccc2[nH]c3ccccc3c12 (racemic) [carvedilol, (±)1-(4-carbazolyloxy)-3-[2-(2-methoxyphenoxy)ethylamino]-2-propanole] | – | up to 80% | only a fraction of the resorption in the stomach | up to 500 mg/ml | 1 mg and 100 | very low solubility
